Data set [1] can be described thus: Time-dependent solubility in 0.1 N aqueous HCl solution. Conditions: for Concentration: 0.1 N HCl, (25 ± 1) °C, hydrochloride. The method, then: The time dependent solubilities of idalopirdine hydrochloride form III and form V in 0.1 N HCl have been determined. Thereby, saturated solutions of both forms have been stirred at controlled temperature of (25 ± 1) °C and known aliquots have been taken after 5, 30 and 60 minutes. After filtering the solids, the idalopiridine concentrations of the remaining mother liquors were determined by HPLC using the same method as provided in Example 3 herein. The absolute solubility values were calculated from a calibration curve generated with solutions of known idalopirdine concentrations. […] Table 4: Time dependent solubility of idalopirdine hydrochloride form III and form V in 0.1 N HCl at (25 ± 1) °C

Data set [2] is described as follows: Accelerated stress test at 40 °C/75% RH (HPLC impurities and PXRD). The data set is classed as physicochemical. The note with it: 1 month at 40 °C/ 75% RH, open dish. The method, then:
Idalopirdine hydrochloride form V was subjected to accelerated stress conditions of 40 °C and 75% RH in an open dish for one month.

The nature of data set [3]: Gravimetric moisture sorption (GMS). The data set is classed as physicochemical. Here is the method: Moisture sorption and desorption curves were recorded with an SPSx-1µ moisture sorption analyzer (ProUmid, Ulm). The measurement cycle was started at ambient RH of 45%. RH was then decreased to 5% in 5% steps, followed by a further decrease to 3% and to 0%. […] Finally, RH was increased to 40% in 5% steps.
The time per step was set to a minimum of 2 hours and a maximum of 6 hours. If an equilibrium condition with a constant mass of ± 0.01 % within 1 hour was reached before the maximum time for all examined samples the sequential humidity step was applied before the maximum time of 6 hours. If no equilibrium was achieved the consecutive humidity step was applied after the maximum time of 6 hours. The temperature was 25 ± 0.1 °C.

A short description of data set [4]: Differential scanning calorimetry (thermal stability). The data set is classed as physicochemical. Conditions: DSC, heating rate 10 K/min. The method, then:
Differential scanning calorimetry (DSC) was performed on a Mettler Polymer DSC R instrument. The sample (4.36 mg) was heated in a 40 microL aluminium pan with pierced aluminium lid from room temperature to 250 °C at a rate of 10 K/min. Nitrogen (purge rate 50 mL/min) was used as purge gas.

Setting [5] is: listed as Idalopirdine hydrochloride form V of the present invention.

Regarding `Cl.Fc1ccc2c(CCNCc3cccc(OCC(F)(F)C(F)F)c3)c[nH]c2c1` [Form III, N-[2-(6-fluoro-1H-indol-3-yl)ethyl]-3-(2,2,3,3-tetrafluoropropoxy)benzylamine hydrochloride, reference compound], the Concentration in data set [1] (5 min) amounted to 500 µg/mL; in data set [1] (30 min) it was 600 µg/mL; in data set [1] (60 min), 800 µg/mL.
As to `Cl.Fc1ccc2c(CCNCc3cccc(OCC(F)(F)C(F)F)c3)c[nH]c2c1` [Form V, N-[2-(6-fluoro-1H-indol-3-yl)ethyl]-3-(2,2,3,3-tetrafluoropropoxy)benzylamine hydrochloride], the figures for the “PXRD before and after” value in data set [2] (listed as Idalopirdine hydrochloride form V) and in data set [2] (setting [5]) were “No change” and “unchanged”, respectively. Also, the “Increase of total impurities (HPLC at 225nm)” value in data set [2] (setting [5]) is reported as “+0.7 area%”; in data set [2] (hydrochloride) it was “about 0.7 area%”. Also, the “PXRDs before and after the GMS experiment” value in data set [3] (0 to 95% RH, 25 ± 0.1 °C) is reported as “identical”. The “mass increase in the sorption cycle” value in data set [3] (sorption cycle from 0 to 95% RH, 25 °C) is 0.5 w-%. For the same molecule, the “higher concentration in 0.1 N HCl” value in data set [1] is listed as “up to 50%”. Besides, the “Concentration, difference to Form III” value was “+40%” in data set [1] (5 min), “+50%” in data set [1] (30 min) and “+12.5%” in data set [1] (60 min). The Concentration amounted to 700 µg/mL in data set [1] (5 min), 900 µg/mL in data set [1] (30 min) and 900 µg/mL in data set [1] (60 min). Moreover, the “thermally stable up to a temperature” value in data set [4] was “at least 120 °C”.
